According to paper PMC11859423, “Fluorescent Probes to Image the KCa3.1 Channel in Tumor Cells” (Pharmaceutics, 2025):
One block for each compound: values may come before it.

Key:
[1] = set-up: method as in PMID 36315933; conditions: previously reported values; cited from earlier work
[2] = target: T1, KCa3.1 channel in A549-3R cells (Homo sapiens, UniProt O15554); set-up: method as in PMID 36315933; conditions: previously reported; cited from earlier work
T1 construct: the non-small cell lung cancer cell line A549-3R with a high expression of the KCa3.1 channel was employed; endogenous in cells; host or cells: A549-3R cells

[3] = logP by HPLC retention time correlation; type: physicochemical; conditions: standardized reversed phase HPLC system
Experimental: The logP values were recorded using HPLC analysis. Thus, the retention time of the test compound in a standardized reversed phase HPLC system is correlated with the retention times of compounds with known logP values.
In addition to the logD7.4 values, the logP values of the fluorescent probes were recorded by HPLC, i.e., after calibration of the method, the retention times were correlated with the logP values or the compounds [33]. […] Fluorescein-labeled ligands 21a and 21b are considerably more polar than the corresponding bodipy-labeled senicapoc derivatives.

[4] = logD7.4 by micro shake flask method (n-octanol / MOPS buffer pH 7.4, LC-MS); type: physicochemical; conditions: read-out: logD7.4 ± SD (Micro Shake Flask)
Experimental: The logD7.4 values were recorded using the micro shake flask method. In this method, the test compound is distributed between n-octanol and MOPS buffer pH 7.4, and the amount of the compound in the buffer layer is determined by mass spectrometry.
The new fluorescent dyes were designed to increase the polarity and reduce the non-specific labeling of lipophilic membranes of cells. Moreover, a higher polarity should lead to increased water solubility and thus improved handling of the dyes. The logD7.4 value was recorded as a measure of the polarity/lipophilicity using our recently published micro-shake flask method. According to this method, the amount of compound in the aqueous 3-morpholinopropanesulfonic acid (MOPS) buffer pH 7.4 was determined by LC-MS [31, 32].

[5] = UV-Vis absorption and time-resolved photoluminescence spectroscopy; type: physicochemical; conditions: measured in H2O, c = 10^−5 M, 298 K
Experimental: All solvents used were of spectrometric grade (Uvasol®). UV-visible absorption spectra were measured using a Shimadzu UV–VIS spectrophotometer (UV-3600i). Photoluminescence quantum yields were measured with a Hamamatsu Photonics absolute PL quantum yield measurement system (C9920-02) equipped with a L9799-01 CW Xe light source (150 W), a monochromator, a C7473 photonic multi-channel analyzer, an integrating sphere and employing U6039-05 software, version 3.6.0. (Hamamatsu Photonics, Ltd., Shizuoka, Japan). Steady-state excitation and emission spectra were recorded on a FluoTime 300 spectrometer from PicoQuant equipped with a 300 W ozone-free Xe lamp (200–1100 nm), a 10 W Xe-flash lamp (200–1100 nm, pulse width ca. 1 µs) with repetition rates of 1–300 Hz, a double-grating excitation monochromator (Czerny–Turner type, grating with 1200 lines/mm, blaze wavelength: 300 nm), diode lasers (pulse width < 20 ps) operated by a computer-controlled laser driver PDL-828 “Sepia II” (repetition rate up to 80 MHz, burst mode for slow and weak decays), two emission monochromators (Czerny–Turner, selectable between double-grating blazed at 500 nm with 2.7 nm/mm dispersion and 1200 lines/mm, or single-grating blazed at 1250 nm with 5.4 nm/mm dispersion and 600 lines/mm) with adjustable slit width between 25 μm and 7 mm. Glam–Thompson polarizers for excitation (after the Xe-lamps) and emission (after the sample) were used. Different sample holders (Peltier-cooled mounting unit ranging from −15 to 110 °C or an adjustable front-face sample holder), along with two detectors (namely a PMA Hybrid-07 from PicoQuant with transit time spread FWHM < 50 ps, 200–850 nm, or a H10330C-45-C3 NIR detector with transit time spread FWHM 0.4 ns, 950–1400 nm from Hamamatsu) were used. Steady-state spectra and photoluminescence lifetimes were recorded in TCSPC mode by a PicoHarp 300 (minimum base resolution 4 ps) or in MCS mode by a TimeHarp 260 (where up to several ms can be traced). Emission and excitation spectra were corrected for source intensity (lamp and grating) by standard correction curves. For samples with lifetimes in the ns order, an instrument response function calibration (IRF) was performed using a diluted Ludox® dispersion. Lifetime analysis was performed using the commercial EasyTau 2 software, version 2.3. (PicoQuant, Berlin, Germany). The quality of the fit was assessed by minimizing the reduced chi squared function (χ^2) and visual inspection of the weighted residuals and their autocorrelation.
Fluorescence microscopy was used for the analysis of KCa3.1 channel labeling of cells with fluorescent dyes. Therefore, the photophysical properties of fluorescently labeled senicapoc derivatives 15a, 21a, and 22 were determined. Since the fluorophores are separated from the rest of the molecule by a linker, the photophysical properties could be recorded using azide precursors 6a, 6b, and 7a as well.

[6] = target: T1, KCa3.1 channel in A549-3R cells; assay: Staining of fixed A549-3R tumor cells (Protocol 1), fluorescence microscopy; type: cell-based; conditions: 10 µM in PBS, 10 min, 4 °C, Protocol 1
Experimental: For the fixation of the cells, the DMEM medium was removed from the glass bottom dish after incubation for 24 h, and the cells were washed with 1 mL of PBS. Subsequently, 1 mL of 4% paraformaldehyde in PBS solution was added to the glass bottom dish and the mixture was incubated for 30 min at room temperature. Thereafter, the cells were washed five times with 1 mL of PBS and used for the cell staining experiments.
After fixation of the cells (Section 2.10.2), 300 µL of the 10 µM staining solution was added to the glass bottom dish. The cells were incubated for 10 min at 4 °C in a dark chamber. After incubation, the cells were washed five times with 1 mL of PBS and used subsequently for fluorescence microscopy.
An Axiovert 200 inverted microscope (Carl Zeiss AG, Jena, Germany) with a ×100 oil immersion objective and a digital camera (SPOT RT SE from Diagnostic Instruments Inc., Livingston, UK) were used. The camera was controlled by MetaVue software (version 6.3r6, Visitron, Germany). Two different filter sets were employed, the FITC filter set (Carl Zeiss Filter Set 10 bandwidth excitation filter 450–490, color splitter 510, bandpass filter 515–565) and the TRITC filter set (Carl Zeiss Filter Set 15, bandpass excitation filter 546/12, dichroic mirror 580, emission filter Long Pass 590).
Using the free imaging software ImageJ (1.53f51, NIH, USA), squares with an edge length of 50 × 50 pixels, corresponding to an area of 9 µm^2, were randomly placed in a cell and signals with Full Width at Half Maximum (FWHM) of ≤5 pixels (~300 nm) were counted as a KCa3.1 channel. For the evaluation, 7 squares were analyzed.
For the staining experiments, the non-small cell lung cancer cell line A549-3R with a high expression of the KCa3.1 channel was employed. An optimized staining protocol (Protocol 1) described previously was followed to analyze the imaging properties of the fluorescent probes. In brief, the 10 µM solution of the senicapoc–dye conjugate in PBS was added to adherent A549-3R cells in a glass bottom dish and the set-up was incubated for 10 min at 4 °C in a dark chamber. After careful washing, the cells were analyzed with a fluorescence microscope.
The images were analyzed with respect to size and density of the fluorescent dots. For this purpose, a square with a size of 50 × 50 pixels was randomly placed on the cell images using ImageJ. The intensities of the signals within the square were analyzed to calculate the Full Width at Half Maximum (FWHM) for each selected dot, which represents a measure for the signal size. For the accurate representation of a single KCa3.1 channel, the FWHM should be in the range of five pixels. Signals with a FWHM of ≤5 pixels within the square were regarded as labeled KCa3.1 channels and the number of identified channels was used to determine the density of the ion channels on the cells (Figure S8, Supplementary Materials).

KCa3.1 channels = conditions: read-out: IC50 (KCa3.1 channel); cited from earlier work

chromatographic logP [3]: 5.4
SMILES: CC1=CC(C)=[N+]2C1=C(c1ccc(OCCOCCn3cc(COc4ccc(C(C(N)=O)(c5ccccc5)c5ccc(F)cc5)cc4)nn3)cc1)c1c(C)cc(C)n1[B-]2(F)F (stereo not drawn) [9a]
logD7.4 ± SD (Micro Shake Flask) [1]: 4.73 ± 0.03
staining properties [2]: promising staining properties

chromatographic logP [3]: 4.4
SMILES: CO[B-]1(F)n2c(C)cc(C)c2C(c2ccc(OCCOCCn3cc(COc4ccc(C(C(N)=O)(c5ccccc5)c5ccc(F)cc5)cc4)nn3)cc2)=C2C(C)=CC(C)=[N+]21 (stereo not drawn) [10a]
logD7.4 ± SD (Micro Shake Flask) [1]: 4.60 ± 0.23
staining properties [2]: promising staining properties

logD [4]: 1.69 ± 0.04
Absorption λmax [5]: 496 nm
Emission λmax [5]: 521 nm
Stokes Shift [5]: 25 nm
ΦF absolute quantum yield [5]: 0.32 ± 0.02
τ photoluminescence lifetime [5]: 4.21 ± 0.02 ns
chromatographic logP ([3]; HPLC at pH 6.0): 1.5
SMILES: NC(=O)C(c1ccccc1)(c1ccc(F)cc1)c1ccc(OCCOCCNC(=S)Nc2ccc3c(c2)C(=O)OC32c3ccc(O)cc3Oc3cc(O)ccc32)cc1 (stereo not drawn) [21a, 2-[4-(2-{2-[3-(3′,6′-Dihydroxy-3-oxo-3H-spiro[[2]benzofuran-1,9′-xanthen]-5-yl)thioureido]ethoxy}ethoxy)phenyl]-2-(4-fluorophenyl)-2-phenylacetamide]
staining pattern of fixed A549-3R tumor cells [6]: A weak green fluorescence of the membrane and an intense staining of the nucleus

SMILES: NC(=O)C(c1ccccc1)(c1ccc(F)cc1)c1ccc(F)cc1 [senicapoc]
IC50 (KCa3.1 channels): 11 nM
